Here are results for 1 molecule from patent US10786475B2, “Method for preventing, treating, or improving fatty liver by administering effective amounts of azelaic acid to a subject” (Korea University Research and Business Foundation, priority 2018, dated 2020).

The subject of assay [1] is PPARα. As to the kind of experiment: PPARα gene expression by qPCR in Hepa1c1c-7 cells. Type of assay: cell-based, mouse. The settings on record: 50 μM AzA, 2 hours, compared with control group. Here is the method: To confirm the change in PPARα gene expression level by an AzA, Hepa1c1c-7 cells were seeded onto a 24-well plate at 5×10^5 cells/mL, cultured for 24 hours, and treated with 50 μM of AzA for 2 hours. Subsequently, RNA was extracted, and cDNA synthesis was performed from the extracted RNA using a ReverTra Ace® qPCR RT kit (TOYOBO, Osaka, Japan). More specifically, to increase PCR efficiency, the extracted RNA was treated at 65° C. for 5 minutes, and the resulting product was immediately stored on ice. Subsequently, a total of 8 μL of a reaction mixture was prepared with 2 μL of a 4×DNA Master Mix containing a gDNA remover, 0.5 μg of RNA and distilled water (nuclease-free water), and reacted at 37° C. for 5 minutes. Subsequently, a 5×RT Master mix was added to the reaction mixture, reacted at 37° C. for 5 minutes, at 50° C. for 5 minutes and at 98° C. for 5 minutes to synthesize cDNA. The cDNA synthesized by the above method was subjected to qPCR using a THUNDERBIRD SYBR qPCR Mix (TOYOBO) and an iQ5 iCycler system (Bio-Rad, California, USA) according to a method known to those of ordinary skill in the art. More particularly, amplification was performed with initial denaturation at 95° C. for 4.5 minutes, and 40 cycles of additional denaturation at the same temperature for 10 seconds, annealing and cooling at 55 to 60° C. for 30 seconds, and elongation at 68° C. for 20 seconds. […]

Assay [2] deals with 3T3-L1 cells stimulated by LPS. As to the kind of experiment: GPCR 10-pathway reporter assay in LPS-induced 3T3-L1 cells. Type of assay: cell-based, mouse. The settings on record: 100 ng/mL LPS 1 hour, 50 μM AzA 6 hours. The method, then: 3T3-L1 cells, mouse pre-adipose cells were purchased from the Korean Cell Line Bank (Seoul, Korea). The 3T3-L1 cells were cultured in Dulbecco's modified Eagle's medium (DMEM) supplemented with 10% heat-inactivated bovine calf serum (Gibco, Grand Island, N.Y., USA) and 1% PEST under 5% CO2 at 37° C. The 3T3-L1 pre-adipose cells were seeded on a 6-well plate at 1×10^6 cells/well to differentiate into adipose cells, and cultured to a density of 100%. After 2 days, the cultured 3T3-L1 pre-adipose cells were incubated in DMEM containing 10% fetal bovine serum (FBS) and an MDI solution (0.5 mM IBMX, 0.5 μM dexamethasone and 10 μg/mL insulin) for 3 days. Subsequently, the treated cells were cultured in DMEM containing 10% FBS and 10 μg/mL insulin, and the formation of lipid droplets in cells and the degree thereof were confirmed, and based on this, the differentiation into adipose cells was confirmed.
3T3-L1 adipose cells were seeded on a 96 well-plate at 1×10^4 cells/well and cultured for 24 hours, and transfected with a construct including a transcription factor promoter and a luciferase for 8 hours. […]
To confirm a mechanism of an anti-inflammatory effect of an AzA, 10 transcription factors for signal transduction of GPCR were analyzed by the same method as described in Example 7-3.

In assay [3] the test system is LPS mouse. Nature of the assay: LPS-induced inflammation in C57BL/6J male mouse, liver gene expression. Type of assay: in vivo. The settings on record: AzA 100 mg/kg, LPS 10 mg/kg intraperitoneally, liver 16 hours after LPS. The method, then:
Eight-week-old C57BL/6J male […] were purchased from Samtako (Gyeonggi-do, Korea). All experiments were carried out according to protocols approved by the Animal Experiment Committee of Korea University (Protocol No. KUIACUC-20090420-4). Mice were maintained under a 12-hour photoperiod at 21 to 25° C. and relative humidity of 50% to 60%. In normal groups and LPS-induced groups, 100 μL of deionized water was administered to each mouse using an oral sonde for 4 days, and 100 μL of LPS was intraperitoneally injected at a dose of 10 mg/kg one hour after the administration with deionized water on the last day, Day 4. In a group into which LPS was administered after the AzA administration, each mouse was orally administered 100 μL of AzA at a dose of 100 mg/kg for 4 days, and intraperitoneally injected with 100 μL of 10 mg/kg LPS one hour after the AzA administration on the last day, Day 4. Sixteen hours after the LPS intraperitoneal injection, the mice were anesthetized with avertin, and dissected to extract liver tissue. The liver tissue was obtained, immediately stored in liquid nitrogen, and then stored at −80° C.
1 μg of RNA extracted from the stored liver tissue was used to synthesize cDNA using a ReverTra Ace® qPCR RT kit (TOYOBO, Osaka, Japan). […]

Structures are written as SMILES.

`O=C(O)CCCCCCCC(=O)O` [AzA, nonanedioic acid]: the PPARα expression entry in assay [1] is on record as “significant increase”. Besides, in assay [2], the “FOXO transcription factor activity (PI-3 Kinase/AKT pathway)” value is “significant activity”. The “gene expression levels of inflammatory cytokines IL-6 and TNF-α in liver tissue” value in assay [3] was “tendency of reduction in inflammatory responses”.
